Measurements taken from patent publication US7893266B2, “Detection of cancer cells in vitro using sigma-2 receptor ligands as radiotracers” (Washington University, priority 2003, dated 2011).

System: EMT-6 mammary tumors
Experiment: Biodistribution in EMT-6 BALB/C mice
Assay type: in vivo
Procedure: As used herein, the term “tumor:background ratio” (i.e., tumor:fat ratio, tumor:muscle ratio, tumor:lung ratio, tumor:blood ratio) refers to the % injected dose/g tissue of the radiotracer in the tumor divided by the % injected dose/g […] in the background tissue (i.e., fat, muscle, lung, blood).
B. Biodistribution Studies of ^11C analogs in Tumor-Bearing Mice. Biodistribution studies were conducted in mature Balb/c mice that were implanted with EMT-6 mammary tumors identified herein as EMT-6 BALB/C mice to create laboratory tumor-bearing mice. The mice were implanted in the scapular region seven days prior to the study. Animals were injected with 100-150 μCi of the ^11C-labeled radiotracer and the animals were sacrificed at 5, 30, and 60 min post-i.v. injection of the radiotracer.
A series of biodistribution studies in tumor-bearing mice were also conducted with [^76Br]8, [^76Br]6, [^125I]8i, and [^125I]6i.

COc1cc2c(cc1OC)CN(CCCCNC(=O)c1cc(Br)cc(OC)c1O[11CH3])CC2 [[^11C]6]
ratio Tumor:blood (5 min): 0.40 ± 0.01
ratio Tumor:fat (5 min): 1.82 ± 0.45
ratio Tumor:heart (5 min): 0.80 ± 0.07
ratio Tumor:lung (5 min): 0.47 ± 0.04
ratio Tumor:muscle (5 min): 1.46 ± 0.19
ratio Tumor:blood (30 min): 0.94 ± 0.05
ratio Tumor:fat (30 min): 2.05 ± 0.57
ratio Tumor:heart (30 min): 1.36 ± 0.12
ratio Tumor:lung (30 min): 0.69 ± 0.08
ratio Tumor:muscle (30 min): 0.59 ± 0.05
ratio Tumor:blood (1 hour): 1.10 ± 0.11
ratio Tumor:fat (1 hour): 2.77 ± 0.82
ratio Tumor:heart (1 hour): 1.86 ± 0.64
ratio Tumor:lung (1 hour): 0.79 ± 0.30
ratio Tumor:muscle (1 hour): 1.84 ± 0.25
% ID per gram blood (5 min): 7.12 ± 1.01 % ID per gram
% ID per gram blood (30 min): 0.99 ± 0.15 % ID per gram
% ID per gram blood (1 hour): 0.45 ± 0.04 % ID per gram
% ID per gram brain (5 min): 0.33 ± 0.09 % ID per gram
% ID per gram brain (30 min): 0.10 ± 0.00 % ID per gram
% ID per gram brain (1 hour): 0.03 ± 0.00 % ID per gram
% ID per gram fat (5 min): 1.66 ± 0.41 % ID per gram
% ID per gram fat (30 min): 0.46 ± 0.19 % ID per gram
% ID per gram fat (1 hour): 0.20 ± 0.08 % ID per gram
% ID per gram heart (5 min): 3.54 ± 0.31 % ID per gram
% ID per gram heart (30 min): 0.68 ± 0.12 % ID per gram
% ID per gram heart (1 hour): 0.29 ± 0.10 % ID per gram
% ID per gram kidney (5 min): 19.48 ± 1.46 % ID per gram
% ID per gram kidney (30 min): 2.57 ± 0.78 % ID per gram
% ID per gram kidney (1 hour): 1.34 ± 0.19 % ID per gram
% ID per gram liver (5 min): 25.02 ± 3.70 % ID per gram
% ID per gram liver (30 min): 2.48 ± 0.52 % ID per gram
% ID per gram liver (1 hour): 1.19 ± 0.17 % ID per gram
% ID per gram lung (5 min): 6.01 ± 0.77 % ID per gram
% ID per gram lung (30 min): 1.34 ± 0.23 % ID per gram
% ID per gram lung (1 hour): 0.70 ± 0.26 % ID per gram
% ID per gram muscle (5 min): 1.94 ± 0.13 % ID per gram
% ID per gram muscle (30 min): 1.67 ± 0.14 % ID per gram
% ID per gram muscle (1 hour): 0.26 ± 0.07 % ID per gram
% ID per gram tumor (5 min): 2.82 ± 0.36 % ID per gram
% ID per gram tumor (30 min): 0.92 ± 0.10 % ID per gram
% ID per gram tumor (1 hour): 0.50 ± 0.09 % ID per gram

COc1cc2c(cc1OC)CN(CCNC(=O)c1cc(C)ccc1O[11CH3])CC2 [[^11C]9]
% ID per gram blood (5 min): 5.89 ± 0.29 % ID per gram
% ID per gram blood (30 min): 2.62 ± 0.22 % ID per gram
% ID per gram blood (1 hour): 1.98 ± 0.35 % ID per gram
% ID per gram brain (5 min): 1.63 ± 0.30 % ID per gram
% ID per gram brain (30 min): 0.11 ± 0.01 % ID per gram
% ID per gram brain (1 hour): 0.10 ± 0.04 % ID per gram
% ID per gram fat (5 min): 3.07 ± 0.40 % ID per gram
% ID per gram fat (30 min): 0.38 ± 0.12 % ID per gram
% ID per gram fat (1 hour): 0.26 ± 0.09 % ID per gram
% ID per gram heart (5 min): 2.89 ± 0.36 % ID per gram
% ID per gram heart (30 min): 0.76 ± 0.06 % ID per gram
% ID per gram heart (1 hour): 0.76 ± 0.46 % ID per gram
% ID per gram kidney (5 min): 44.07 ± 1.67 % ID per gram
% ID per gram kidney (30 min): 2.77 ± 0.42 % ID per gram
% ID per gram kidney (1 hour): 1.01 ± 0.12 % ID per gram
% ID per gram liver (5 min): 18.49 ± 2.87 % ID per gram
% ID per gram liver (30 min): 3.87 ± 0.67 % ID per gram
% ID per gram liver (1 hour): 1.70 ± 0.23 % ID per gram
% ID per gram lung (5 min): 5.69 ± 0.70 % ID per gram
% ID per gram lung (30 min): 1.42 ± 0.15 % ID per gram
% ID per gram lung (1 hour): 1.39 ± 0.67 % ID per gram
% ID per gram muscle (5 min): 1.75 ± 0.21 % ID per gram
% ID per gram muscle (30 min): 0.56 ± 0.19 % ID per gram
% ID per gram muscle (1 hour): 0.41 ± 0.22 % ID per gram
% ID per gram tumor (5 min): 3.10 ± 0.25 % ID per gram
% ID per gram tumor (30 min): 1.08 ± 0.08 % ID per gram
% ID per gram tumor (1 hour): 0.85 ± 0.14 % ID per gram

COc1cc2c(cc1OC)CN(CCNC(=O)c1cc([125I])ccc1OC)CC2 [[^125I]8i]
ratio Tumor:blood (5 min): 0.42 ± 0.03
ratio Tumor:fat (5 min): 0.84 ± 0.06
ratio Tumor:heart (5 min): 1.04 ± 0.08
ratio Tumor:lung (5 min): 0.50 ± 0.07
ratio Tumor:muscle (5 min): 2.00 ± 0.37
ratio Tumor:blood (30 min): 0.57 ± 0.12
ratio Tumor:fat (30 min): 1.49 ± 0.65
ratio Tumor:heart (30 min): 1.44 ± 0.18
ratio Tumor:lung (30 min): 0.98 ± 0.16
ratio Tumor:muscle (30 min): 2.06 ± 0.69
ratio Tumor:blood (1 hour): 0.62 ± 0.09
ratio Tumor:fat (1 hour): 1.93 ± 1.87
ratio Tumor:heart (1 hour): 1.81 ± 0.32
ratio Tumor:lung (1 hour): 0.91 ± 0.24
ratio Tumor:muscle (1 hour): 2.14 ± 0.99
ratio Tumor:blood (2 hour): 0.26 ± 0.08
ratio Tumor:fat (2 hour): 2.44 ± 0.77
ratio Tumor:heart (2 hour): 1.00 ± 0.27
ratio Tumor:lung (2 hour): 0.67 ± 0.14
ratio Tumor:muscle (2 hour): 2.17 ± 0.23
% ID per gram blood (5 min): 6.90 ± 1.29 % ID per gram
% ID per gram blood (30 min): 2.44 ± 0.65 % ID per gram
% ID per gram blood (1 hour): 1.17 ± 0.29 % ID per gram
% ID per gram blood (2 hour): 3.37 ± 1.23 % ID per gram
% ID per gram brain (5 min): 1.42 ± 0.33 % ID per gram
% ID per gram brain (30 min): 0.20 ± 0.06 % ID per gram
% ID per gram brain (1 hour): 0.06 ± 0.02 % ID per gram
% ID per gram brain (2 hour): 0.09 ± 0.03 % ID per gram
% ID per gram fat (5 min): 3.46 ± 0.59 % ID per gram
% ID per gram fat (30 min): 1.03 ± 0.44 % ID per gram
% ID per gram fat (1 hour): 0.77 ± 0.66 % ID per gram
% ID per gram fat (2 hour): 0.37 ± 0.13 % ID per gram
% ID per gram heart (5 min): 2.79 ± 0.35 % ID per gram
% ID per gram heart (30 min): 0.94 ± 0.19 % ID per gram
% ID per gram heart (1 hour): 0.40 ± 0.02 % ID per gram
% ID per gram heart (2 hour): 0.86 ± 0.26 % ID per gram
% ID per gram kidney (5 min): 54.77 ± 8.42 % ID per gram
% ID per gram kidney (30 min): 38.59 ± 2.05 % ID per gram
% ID per gram kidney (1 hour): 18.07 ± 2.07 % ID per gram
% ID per gram kidney (2 hour): 8.46 ± 1.26 % ID per gram
% ID per gram liver (5 min): 41.37 ± 7.23 % ID per gram
% ID per gram liver (30 min): 8.20 ± 1.05 % ID per gram
% ID per gram liver (1 hour): 2.87 ± 0.34 % ID per gram
% ID per gram liver (2 hour): 3.47 ± 1.05 % ID per gram
% ID per gram lung (5 min): 5.95 ± 1.30 % ID per gram
% ID per gram lung (30 min): 1.39 ± 0.29 % ID per gram
% ID per gram lung (1 hour): 0.81 ± 0.20 % ID per gram
% ID per gram lung (2 hour): 1.27 ± 0.37 % ID per gram
% ID per gram muscle (5 min): 1.47 ± 0.20 % ID per gram
% ID per gram muscle (30 min): 0.70 ± 0.25 % ID per gram
% ID per gram muscle (1 hour): 0.37 ± 0.23 % ID per gram
% ID per gram muscle (2 hour): 0.38 ± 0.06 % ID per gram
% ID per gram tumor (5 min): 2.91 ± 0.40 % ID per gram
% ID per gram tumor (30 min): 1.33 ± 0.13 % ID per gram
% ID per gram tumor (1 hour): 0.71 ± 0.12 % ID per gram
% ID per gram tumor (2 hour): 0.82 ± 0.09 % ID per gram
